Experimental data published in PMC8892858 (ACS Omega, 2022).
“And” between values parts separate entries of the source, which are not always exact repeats. Equal values may be shown once. “Also recorded” adds a separate entry of the source. Where a name gives a salt, the structure may show the parent alone. Read-outs that look alike come from different tables or passages of the source.

How the values were obtained:
in vitro = conditions: human
rRVFVΔNSs::Katushka [1] = format: cell-based, Rift Valley fever virus
rRVFVΔNSs::Katushka [2] = assay: microbe, parasite or virus in culture; format: cell-based, Rift Valley fever virus; conditions: for IC50: read-out: IC50, dose-response curves of inhibition of RVFV infection (Figure 5A)
rRVFVΔNSs::Katushka [3] = format: cell-based, Rift Valley fever virus; remark: listed apart in the source
A549 cells [4] = format: cell-based, Human
A549 cells [5] = tested on: A549 cells
[6] = Rift Valley fever virus, A549, 16 h, read-out: EC50 value
[7] = Rift Valley fever virus, A549, 16 h

| Molecule | CC50 (in vitro) [µM] | Selectivity index (rRVFVΔNSs::Katushka [2]) | EC50 (rRVFVΔNSs::Katushka [2]; [6]) [µM] | other results |
| --- | --- | --- | --- | --- |
| CN1CCN(CCCCOc2ccc(-c3ccccc3)cc2)CC1 [Compound 8c, 1-(4-(Biphenyl-4-yloxy)butyl)-4-methylpiperazine] | 136.2 ± 1.2 | 2.2 | 61.7 ± 17.6 | inhibition of RVFV RNA expression (qRT-PCR) (rRVFVΔNSs::Katushka [1]): unable to inhibit the viral RNA expressions |
| c1ccc(Cc2ccccc2OCCCCN2CCNCC2)cc1 [Compound 13e, 1-(4-(2-Benzylphenoxy)butyl)piperazine·2HCl] | 148.4 ± 1.3 | 4.7 | 31.2 ± 15.8 |  |
| c1ccc(-c2cccc(OCCCCN3CCNCC3)c2)cc1 [Compound 13a, 1-(4-(Biphenyl-3-yloxy)butyl)piperazine·2HCl] | 145 ± 5.5 | 10 and 10.4 | 13.8 ± 5.3 | antiviral potency by time of addition (rRVFVΔNSs::Katushka [3]): active at early stages of the viral replication cycle, most likely during or just after virus entry; also recorded: progressively lost its potency when added at late stages of the infection cycle; DiBAC4(3) fluorescence intensity (membrane potential) (A549 cells [4]): increased DiBAC4(3) fluorescence intensity (depolarization); IC50 (rRVFVΔNSs::Katushka [2]; [7]): 13.8 µM |
| c1ccc(Cc2cccc(OCCCCN3CCNCC3)c2)cc1 [Compound 13d, 1-(4-(3-Benzylphenoxy)butyl)piperazine·2HCl] | 134.2 ± 0.9 | 5.8 | 22.9 ± 5.2 |  |
| CC(=O)c1cccc(-c2ccc(OCCCCN3CCNCC3)cc2)c1 [Compound 13g, 1-(4′-(4-(Piperazin-1-yl)butoxy)biphenyl-3-yl)ethanone·2HCl] | > 300 |  | 41.9 ± 27.3 |  |
| c1ccc(-c2ccc(OCCCN3CCNCC3)cc2)cc1 [Compound 5g, 1-(3-(Biphenyl-4-yloxy)propyl)piperazine] | 203 ± 53.5 | < 2 | > 100 |  |
| CC(C)c1cccc(-c2ccc(OCCCCN3CCNCC3)cc2)c1 [Compound 13j, 1-(4-(3′-Isopropylbiphenyl-4-yloxy)butyl)piperazine·2HCl] | 25.5 ± 8.9 | 5.4 | 4.7 ± 0.7 |  |
| c1ccc(-c2ccc(OCCN3CCOCC3)cc2)cc1 [Compound 4e, 4-(2-(Biphenyl-4-yloxy)ethyl)morpholine] | > 300 |  | > 100 |  |
| 1-(4-(Benzhydryloxy)butyl)-4-phenylpiperazine [Compound 16] |  |  |  | CC50 (A549 cells [5]): > 300 µM; EC50 value (rRVFVΔNSs::Katushka [2]): reduced the antiviral activity significantly; EC50 (rRVFVΔNSs::Katushka [2]; read-out: EC50 value): > 100 µM |
| CN(C)c1cccc(-c2ccc(OCCCCN3CCNCC3)cc2)c1 [Compound 13h, N,N-Dimethyl-4′-(4-(piperazin-1-yl)butoxy)biphenyl-3-amine·3HCl] | 82.5 ± 15.2 | 5.3 | 15.5 ± 4.7 | CC50 value (A549 cells [5]): high toxicity |
| NCCCOc1ccc(-c2ccccc2)cc1 [Compound 5c, 3-(Biphenyl-4-yloxy)propan-1-amine] | 147 ± 4 | 3.8 | 37.8 ± 6.7 |  |
| c1ccc(-c2ccc(OCCCCN3CCN(c4ccccc4)CC3)cc2)cc1 [Compound 11, 1-(4-(Biphenyl-4-yloxy)butyl)-4-phenylpiperazine] | > 300 |  |  | inhibition of RVFV RNA expression (qRT-PCR) (rRVFVΔNSs::Katushka [1]): did not show any inhibition; EC50 value (rRVFVΔNSs::Katushka [2]): the antiviral activity was completely eliminated; also recorded: ND (no inhibition) |
| c1cc(C23CC4CC(CC(C4)C2)C3)ccc1OCCCCN1CCNCC1 [Compound 13m, 1-(4-(4-Adamantylphenoxy)butyl)piperazine·2HCl] | 13.1 | 2.4 | 5.4 ± 1.2 | CC50 value (A549 cells [5]): Extreme toxicity |
| NCCCCCCOc1ccc(-c2ccccc2)cc1 [Compound 5a, 6-(Biphenyl-4-yloxy)hexan-1-amine·HCl] | 44.6 ± 0.3 | 3.6 | 12.1 ± 2.1 |  |
| C=C[C@H]1C[N@@]2CC[C@H]1C[C@@H]2[C@@H](O)c1ccnc2ccc(OC)cc12 [quinidine, reference compound] |  |  |  | DiBAC4(3) fluorescence intensity (membrane potential) (A549 cells [4]): increased DiBAC4(3) fluorescence intensity (depolarization); EC50 (rRVFVΔNSs::Katushka [2]; Rift Valley fever virus, A549, 16 h, read-out: EC50 value, inhibition of RVFV infection (dose-response before membrane potential assay)): 146 µM; IC50 (rRVFVΔNSs::Katushka [2]; [7]): 164 µM |
| NCCCNCCOc1ccc(-c2ccccc2)cc1 [Compound 1, N1-(2-(Biphenyl-4-yloxy)ethyl)propane-1,3-diamine·2HCl] | 86 ± 9 | 7.1 | 12 ± 1.3 |  |
| c1ccc(-c2ccc(OCCCCN3CCNCC3)cc2)cc1 [Compound 9a, 1-(4-(Biphenyl-4-yloxy)butyl)piperazine] | 74.8 ± 1.2 | 5.8 | 12.8 ± 0.2 |  |
| c1ccc(-c2ccc(OCCN3CCNCC3)cc2)cc1 [Compound 5f, 1-(2-(Biphenyl-4-yloxy)ethyl)piperazine] | 165 ± 22.9 | 4.2 | 38.7 ± 11.6 |  |
| c1ccc(-c2ccccc2OCCCCN2CCNCC2)cc1 [Compound 13b, 1-(4-(Biphenyl-2-yloxy)butyl)piperazine·2HCl] | > 300 | > 4.7 | 63.5 ± 11.1 |  |
| c1ccc(-c2ccc(OCCN3CCCCC3)cc2)cc1 [Compound 4d, 1-(2-(Biphenyl-4-yloxy)ethyl)piperidine] | > 300 |  | > 100 |  |
| c1cc(C2CCCCC2)ccc1OCCCCN1CCNCC1 [Compound 13l, 1-(4-(4-Cyclohexylphenoxy)butyl)piperazine·2HCl] | 49.9 ± 10.1 | 5.6 | 8.8 ± 0.5 |  |
| CC(C)c1ccc(-c2ccc(OCCCCN3CCNCC3)cc2)cc1 [Compound 13i, 1-(4-(4′-Isopropylbiphenyl-4-yloxy)butyl)piperazine·2HCl] | 23.5 ± 0.1 | 5.1 | 4.6 ± 0.3 |  |
| c1ccc(OCCCCN2CCNCC2)cc1 [Compound 13f, 1-(4-Phenoxybutyl)piperazine·2HCl] | > 300 |  |  | EC50 value (rRVFVΔNSs::Katushka [2]): completely removed the antiviral activity; also recorded: ND (no inhibition) |
| c1ccc(-c2ccc(OCCCCCN3CCNCC3)cc2)cc1 [Compound 9b, 1-(5-(Biphenyl-4-yloxy)pentyl)piperazine] | 44.2 ± 16.6 |  | 11.7 ± 1.8 |  |
| NCCOc1ccc(-c2ccccc2)cc1 [Compound 5b, 2-(Biphenyl-4-yloxy)ethanamine·HCl] | > 300 | 8.1 | 37.3 ± 0.5 |  |
| c1ccc(Cc2ccc(OCCCCN3CCNCC3)cc2)cc1 [Compound 13c, 1-(4-(4-Benzylphenoxy)butyl)piperazine·2HCl] | 140.3 ± 0.8 | 9.1 | 15.4 ± 4.7 |  |
